Experimental data published in patent US20240300932A1, “N-PHENYLIMINE DERIVATIVE AND PREPARATION METHOD AND USE THEREOF” (Guizhou University, priority 2023, published 2024).

Experiments:
Assay in all cases: Post-emergence herbicidal activity test (stem and leaf spray, pot culture)
Type in all cases: in vivo
Details in all cases: 3 weeks after spraying
Trifoliumre pensL. = test system: Trifoliumre pensL.
Method in brief: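 Pot-grown weeds in loam (pH 7), greenhouse at 20–30 °C, sprayed once post-emergence at the 2–3-leaf stage. Compound in acetone with Tween 80 plus methyl oleate oil (1.5 L/ha), applied at 10, 5 and 2.5 g/mu by spray tower. Effect scored 3 weeks after spraying, averaged over three repeats.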

Echinochloa crusgalli = test system: Echinochloa crusgalli
Method in brief: (§1)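 Read-out: fresh weight control rate 3 weeks post-spray, graded 5 (≥85%) down to 0 (<5%). Foliar spray at 2–3-leaf stage; rates 10, 5, 2.5 g/mu; acetone + Tween 80 formulation with methyl oleate synergist; greenhouse 20–30 °C, natural light.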

Portulaca oleracea = test system: Portulaca oleracea
Method in brief: as §1

Abutilon theophrasti = test system: Abutilon theophrasti
Method in brief: as §1

Amaranthus retroflexus = test system: Amaranthus retroflexus
Method in brief: as §1

Setaria viridis = test system: Setaria viridis
Method in brief: as §1

| Structure (SMILES) | Post-emergence herbicidal activity, Trifoliumre pensL. (grade) (Trifoliumre pensL.; dosage 2.5 g/mu) | Post-emergence herbicidal activity, Trifoliumre pensL. (grade) (Trifoliumre pensL.; dosage 5 g/mu) | Post-emergence herbicidal activity, Trifoliumre pensL. (grade) (Trifoliumre pensL.; dosage 10 g/mu) | Post-emergence herbicidal activity, E. crusgalli (grade) (Echinochloa crusgalli; dosage 2.5 g/mu) | Post-emergence herbicidal activity, E. crusgalli (grade) (Echinochloa crusgalli; dosage 5 g/mu) | Post-emergence herbicidal activity, E. crusgalli (grade) (Echinochloa crusgalli; dosage 10 g/mu) | Post-emergence herbicidal activity, P. oleracea (grade) (Portulaca oleracea; dosage 2.5 g/mu) | Post-emergence herbicidal activity, P. oleracea (grade) (Portulaca oleracea; dosage 5 g/mu) | Post-emergence herbicidal activity, P. oleracea (grade) (Portulaca oleracea; dosage 10 g/mu) | Post-emergence herbicidal activity, A. theophrasti (grade) (Abutilon theophrasti; dosage 2.5 g/mu) | Post-emergence herbicidal activity, A. theophrasti (grade) (Abutilon theophrasti; dosage 5 g/mu) | Post-emergence herbicidal activity, A. theophrasti (grade) (Abutilon theophrasti; dosage 10 g/mu) | Post-emergence herbicidal activity, A. retroflexus (grade) (Amaranthus retroflexus; dosage 2.5 g/mu) | Post-emergence herbicidal activity, A. retroflexus (grade) (Amaranthus retroflexus; dosage 5 g/mu) | Post-emergence herbicidal activity, A. retroflexus (grade) (Amaranthus retroflexus; dosage 10 g/mu) | Post-emergence herbicidal activity, S. viridis (grade) (Setaria viridis; dosage 2.5 g/mu) | Post-emergence herbicidal activity, S. viridis (grade) (Setaria viridis; dosage 5 g/mu) | Post-emergence herbicidal activity, S. viridis (grade) (Setaria viridis; dosage 10 g/mu) |
| --- | --- | --- | --- | --- | --- | --- | --- | --- | --- | --- | --- | --- | --- | --- | --- | --- | --- | --- |
| O=C1C2=C(CCCC2)C(=O)N1c1cc(OCc2nnc(-c3ccc(Br)cc3)o2)c(Cl)cc1F [Compound B16] | 5 (Grade 5: the growth control rate is greater than or equal to 85%) | 5 (Grade 5: the growth control rate is greater than or equal to 85%) | 5 (Grade 5: the growth control rate is greater than or equal to 85%) | 1 (Grade 1: the growth control rate is greater than or equal to 5% and less than 20%) | 2 (Grade 2: the growth control rate is greater than or equal to 20% and less than 40%) | 3 (Grade 3: the growth control rate is greater than or equal to 40% and less than 60%) | 5 (Grade 5: the growth control rate is greater than or equal to 85%) | 5 (Grade 5: the growth control rate is greater than or equal to 85%) | 5 (Grade 5: the growth control rate is greater than or equal to 85%) | 5 (Grade 5: the growth control rate is greater than or equal to 85%) | 5 (Grade 5: the growth control rate is greater than or equal to 85%) | 5 (Grade 5: the growth control rate is greater than or equal to 85%) | 5 (Grade 5: the growth control rate is greater than or equal to 85%) | 5 (Grade 5: the growth control rate is greater than or equal to 85%) | 5 (Grade 5: the growth control rate is greater than or equal to 85%) | 2 (Grade 2: the growth control rate is greater than or equal to 20% and less than 40%) | 3 (Grade 3: the growth control rate is greater than or equal to 40% and less than 60%) | 4 (Grade 4: the growth control rate is greater than or equal to 60% and less than 85%) |
| O=C1C2=C(CCCC2)C(=O)N1c1cc(OCc2nnc(-c3ccc(I)cc3)o2)c(Cl)cc1F [Compound B17] | 5 (Grade 5: the growth control rate is greater than or equal to 85%) | 5 (Grade 5: the growth control rate is greater than or equal to 85%) | 5 (Grade 5: the growth control rate is greater than or equal to 85%) | 1 (Grade 1: the growth control rate is greater than or equal to 5% and less than 20%) | 2 (Grade 2: the growth control rate is greater than or equal to 20% and less than 40%) | 3 (Grade 3: the growth control rate is greater than or equal to 40% and less than 60%) | 5 (Grade 5: the growth control rate is greater than or equal to 85%) | 5 (Grade 5: the growth control rate is greater than or equal to 85%) | 5 (Grade 5: the growth control rate is greater than or equal to 85%) | 5 (Grade 5: the growth control rate is greater than or equal to 85%) | 5 (Grade 5: the growth control rate is greater than or equal to 85%) | 5 (Grade 5: the growth control rate is greater than or equal to 85%) | 5 (Grade 5: the growth control rate is greater than or equal to 85%) | 5 (Grade 5: the growth control rate is greater than or equal to 85%) | 5 (Grade 5: the growth control rate is greater than or equal to 85%) | 2 (Grade 2: the growth control rate is greater than or equal to 20% and less than 40%) | 3 (Grade 3: the growth control rate is greater than or equal to 40% and less than 60%) | 4 (Grade 4: the growth control rate is greater than or equal to 60% and less than 85%) |
| O=C1C2=C(CCCC2)C(=O)N1c1cc(OCc2nnc(-c3ccc([N+](=O)[O-])cc3)o2)c(Cl)cc1F [Compound B18] | 5 (Grade 5: the growth control rate is greater than or equal to 85%) | 5 (Grade 5: the growth control rate is greater than or equal to 85%) | 5 (Grade 5: the growth control rate is greater than or equal to 85%) | 1 (Grade 1: the growth control rate is greater than or equal to 5% and less than 20%) | 2 (Grade 2: the growth control rate is greater than or equal to 20% and less than 40%) | 3 (Grade 3: the growth control rate is greater than or equal to 40% and less than 60%) | 4 (Grade 4: the growth control rate is greater than or equal to 60% and less than 85%) | 5 (Grade 5: the growth control rate is greater than or equal to 85%) | 5 (Grade 5: the growth control rate is greater than or equal to 85%) | 4 (Grade 4: the growth control rate is greater than or equal to 60% and less than 85%) | 5 (Grade 5: the growth control rate is greater than or equal to 85%) | 5 (Grade 5: the growth control rate is greater than or equal to 85%) | 5 (Grade 5: the growth control rate is greater than or equal to 85%) | 5 (Grade 5: the growth control rate is greater than or equal to 85%) | 5 (Grade 5: the growth control rate is greater than or equal to 85%) | 2 (Grade 2: the growth control rate is greater than or equal to 20% and less than 40%) | 3 (Grade 3: the growth control rate is greater than or equal to 40% and less than 60%) | 4 (Grade 4: the growth control rate is greater than or equal to 60% and less than 85%) |
| O=C1C2=C(CCCC2)C(=O)N1c1cc(OCc2nnc(-c3ccc(Cl)cc3F)o2)c(Cl)cc1F [Compound B19] | 5 (Grade 5: the growth control rate is greater than or equal to 85%) | 5 (Grade 5: the growth control rate is greater than or equal to 85%) | 5 (Grade 5: the growth control rate is greater than or equal to 85%) | 1 (Grade 1: the growth control rate is greater than or equal to 5% and less than 20%) | 2 (Grade 2: the growth control rate is greater than or equal to 20% and less than 40%) | 3 (Grade 3: the growth control rate is greater than or equal to 40% and less than 60%) | 5 (Grade 5: the growth control rate is greater than or equal to 85%) | 5 (Grade 5: the growth control rate is greater than or equal to 85%) | 5 (Grade 5: the growth control rate is greater than or equal to 85%) | 5 (Grade 5: the growth control rate is greater than or equal to 85%) | 5 (Grade 5: the growth control rate is greater than or equal to 85%) | 5 (Grade 5: the growth control rate is greater than or equal to 85%) | 5 (Grade 5: the growth control rate is greater than or equal to 85%) | 5 (Grade 5: the growth control rate is greater than or equal to 85%) | 5 (Grade 5: the growth control rate is greater than or equal to 85%) | 2 (Grade 2: the growth control rate is greater than or equal to 20% and less than 40%) | 3 (Grade 3: the growth control rate is greater than or equal to 40% and less than 60%) | 4 (Grade 4: the growth control rate is greater than or equal to 60% and less than 85%) |
